{"source": "patent US20250017834A1", "about": "“SUNSCREEN COMPOSITIONS COMPRISING IMINE ANALOGS OF A SUNSCREEN COMPRISING A KETONE” (Curie Co. Inc., priority 2020, published 2025)", "type_in_all_cases": "physicochemical", "key": {"[1]": {"assay": "UV/Vis spectral properties (UVA, UVB and visible absorption), Cary-50 spectrophotometer", "conditions": "for UV absorption properties compared to oxybenzone: 5 mM or 0.05 mM, FIG. 1; for Absorption spectra compared to oxybenzone: 5 mM (N-Boc-Imine-6 also 0.05 mM), FIG. 3", "protocol": "Imine-1, Imine-2, and Imine-3 were synthesized, purified, and isolated (see above). All three compounds were separately dissolved in acetonitrile to a final concentration of 5 mM (FIG. 1) or 0.05 mM (FIG. 1, inset) and analyzed by UV/Vis (Cary-50 Spectrophotomer). The spectral properties were compared to oxybenzone in acetonitrile.\nCarbamate-1, first described in U.S. Pat. No. 5,490,980A, was synthesized, purified, and isolated (see above). Carbamate-1 was dissolved in acetonitrile to a final concentration of 0.05 mM and analyzed by UV/Vis (Cary-50 Spectrophotomer). The spectral properties were compared to oxybenzone in acetonitrile at a final concentration of 0.05 mM.\nImine-4, Imine-5, and N-Boc-Imine-6 were synthesized, purified, and isolated (see above). All three compounds were separately dissolved in acetonitrile to a final concentration of 5 mM (FIG. 3) and analyzed by UV/Vis (Cary-50 Spectrophotomer). N-Boc-Imine-6 was diluted in acetonitrile to a final concentration of 0.05 mM (FIG. 3, inset) and analyzed by UV/Vis. […] Spectral properties were compared to oxybenzone in acetonitrile at the same concentration.\nTo understand the solution stability of the Boc-protected imines in protic solvent, N-Boc-Imine-6 was prepared in ethanol in the presence of catalytic glacial acetic acid. Briefly, to a solution of oxybenzone (0.10 g, 0.438 mmol, 1 eq) and N-Boc-1,6-hexanediamine (0.094 g, 0.43 mmol, 1 eq) in ethanol (0.3 mL) was added catalytic glacial acetic acid (1 μL). The reaction mixture was agitated at 900 rpm at 70° C. for 16 hr and monitored by LCMS. […] The reaction was then diluted in ethanol to final concentration of 0.04 mM and analyzed by UV/Vis spectroscopy.\nN-Boc-Imine-8 and Imine-8 was synthesized, purified, and isolated (see above). N-Boc-Imine-8 and Imine-8 were dissolved in ethanol to a final concentration of 0.032 mM and 8 mM, respectively (FIG. 6) and analyzed by UV/Vis. (Cary-50 Spectrophotomer). Spectral properties were compared to sulisobenzone in ethanol at similar concentration.\nImine-10 was first dissolved in methyl tert-butyl ether and then diluted in ethanol to a final concentration of 5 mM and 0.04 mM (FIG. 7) and analyzed by UV/Vis. (Cary-50 Spectrophotomer). Spectral properties were compared to oxybenzone at similar concentration."}, "[2]": {"assay": "Solubility in acetonitrile"}, "[3]": {"assay": "Solution stability of Boc-protected imine in protic solvent (ethanol), LCMS and UV/Vis", "conditions": "70° C., over 24 hours, catalytic glacial acetic acid", "protocol": "To understand the solution stability of the Boc-protected imines in protic solvent, N-Boc-Imine-6 was prepared in ethanol in the presence of catalytic glacial acetic acid. Briefly, to a solution of oxybenzone (0.10 g, 0.438 mmol, 1 eq) and N-Boc-1,6-hexanediamine (0.094 g, 0.43 mmol, 1 eq) in ethanol (0.3 mL) was added catalytic glacial acetic acid (1 μL). The reaction mixture was agitated at 900 rpm at 70° C. for 16 hr and monitored by LCMS. Full reaction of the starting material to a single product peak was observed by LCMS indicating completion. The reaction was then diluted in ethanol to final concentration of 0.04 mM and analyzed by UV/Vis spectroscopy. […] Additionally, the Boc-protecting group remained intact throughout the reaction and UV/Vis analysis."}}, "data": [{"molecule": "COc1ccc(C(=O)c2ccccc2)c(OC(=O)NCCCCCCNC(=O)OC(C)(C)C)c1", "note": "[Carbamate-1, reference compound]", "values": [{"measurement": "UV filter properties compared to oxybenzone", "setting": "[1]; acetonitrile, 0.05 mM, FIG. 2", "result": "UVA blocking was reduced"}]}, {"molecule": "COc1ccc(/C(=N/Cc2ccccc2)c2ccccc2)c(O)c1", "note": "[Imine-1]", "values": [{"measurement": "UV absorption properties compared to oxybenzone", "setting": "[1]; acetonitrile", "result": "improved both UVA-1, UVA-2, and UVB absorption properties"}]}, {"molecule": "COc1ccc(/C(=N/c2ccccc2)c2ccccc2)c(O)c1", "note": "[Imine-2]", "values": [{"measurement": "UV absorption properties compared to oxybenzone", "setting": "[1]; acetonitrile", "result": "improved both UVA-1, UVA-2, and UVB absorption properties"}]}, {"molecule": "COc1ccc(/C(=N/O)c2ccccc2)c(O)c1", "note": "[Imine-3]", "values": [{"measurement": "UV absorption properties compared to oxybenzone", "setting": "[1]; acetonitrile", "result": "loss in the UVA blocking and reduction in UVB blocking"}]}, {"molecule": "COc1ccc(/C(=N/C(CCC(N)=O)C(=O)O)c2ccccc2)c(O)c1", "note": "(centres unmarked) [Imine-5]", "values": [{"measurement": "Absorption spectra compared to oxybenzone", "setting": "[1]; acetonitrile", "result": "encompassed the UVA-1, UVA-2, and UVB regions as well as the visible region of the spectrum (greater than 400 nm)"}]}, {"molecule": "COc1ccc(/C(=N/CCCCCCN)c2ccccc2)c(O)c1", "note": "[Imine-6]", "values": [{"measurement": "Solubility in acetonitrile", "setting": "[2]", "result": "poor solubility"}]}, {"molecule": "COc1cc(O)c(/C(=N\\CCCCCCN)c2ccccc2)cc1S(=O)(=O)O", "note": "[Imine-8]", "values": [{"measurement": "Absorbance compared to sulisobenzone", "setting": "[1]; ethanol, N-Boc-Imine-8 0.032 mM, Imine-8 8 mM, FIG. 6", "result": "retained absorbance in the UVB region and extended absorbance into the UVA region"}]}, {"molecule": "CCCCCCOC(=O)c1ccccc1/C(=N/CCCCCCN)c1cccc(N(CC)CC)c1O", "note": "[Imine-9]", "values": [{"measurement": "Absorbance spectra of DHHB-derived imines", "setting": "[1]; data not shown", "result": "red shift of the absorbance spectra, which extends to the visible region"}]}, {"molecule": "COc1ccc(/C(=N/CCCCCCNC(=O)OC(C)(C)C)c2ccccc2)c(O)c1", "note": "[N-Boc-Imine-6]", "values": [{"measurement": "Absorption spectra compared to oxybenzone", "setting": "[1]; acetonitrile", "result": "encompassed the UVA-1, UVA-2, and UVB regions as well as the visible region of the spectrum (greater than 400 nm)"}, {"measurement": "Absorption spectrum in ethanol", "setting": "[1]; ethanol, 0.04 mM, reaction mixture diluted, FIG. 4", "result": "encompasses the UVA and UVB regions as well as the visible region of the spectrum (greater than 400 nm)"}, {"measurement": "Solution stability without reversion to starting ketone and amine", "setting": "[3]", "result": "stable"}]}]}
